The source of these data is patent US12551499B2 (Atea Pharmaceuticals, Inc., priority 2020, dated 2026).

Where two headings read alike, the source gives them in different places. A value given as a limit tells only on which side of the number the result lay.

The subject of data set [1] is SARS-CoV-2 (WA1). Nature of the data set: Virus yield reduction assay, SARS-CoV-2 in dNHBE / HAE cells. The data set is classed as cell-based. Here is the method: The antiviral activity of Compound 1A was next evaluated against SARS-CoV-2 (WA1) using differentiated normal human bronchial epithelial (dNHBE; HAE (human airway epithelial) cells made to order by MatTek Corporation (Ashland, MA).
Cell Culture: dNHBE cells were grown on 6 mm mesh disks and arrived in kits with either 12- or 24-well transwell inserts. During transportation the tissues were stabilized on a sheet of agarose, which was removed upon receipt. One insert was estimated to consist of approximately 1.2×10^6 cells. Kits of cell inserts (EpiAirway™ AIR-100, AIR-112) originated from a single donor, #9831, a healthy, non-smoking person. The cells have unique properties in forming layers, the apical side of which is exposed only to air and that creates a mucin layer. Upon arrival, the cell transwell inserts were immediately transferred to individual wells of a 6-well plate according to manufacturer's instructions, and 1 mL of MatTek's proprietary culture medium (AIR-100-MM) was added to the basolateral side, whereas the apical side was exposed to a humidified 5% CO2 environment. Cells were cultured at 37° C. for one day before the start of the experiment. After the 24 hour equilibration period, the mucin layer, secreted from the apical side of the cells, was removed by washing with 400 μL pre-warmed 30 mM HEPES buffered saline solution 3×. Culture medium was replenished following the wash steps.
Viruses: Virus was diluted in AIR-100-MM medium before infection, yielding a multiplicity of infection (MOI) of approximately 0.0015 CCID50 per cell.
The cells were maintained at the air-liquid interface.
Determination of virus titers from each treated cell culture: Vero 76 cells were seeded in 96-well plates and grown overnight (37° C.) to confluence. Samples containing virus were diluted in 10-fold increments in infection medium and 200 μL of each dilution transferred into respective wells of a 96-well microtiter plate. Four microwells were used for each dilution to determine 50% viral endpoints. After 5 days of incubation, each well was scored positive for virus if any cytopathic effect (CPE) was observed as compared with the uninfected control and counts were confirmed for endpoint on days 6 and 7. […] The day 5 values were reported. Untreated, uninfected cells were used as the cell controls.
The antiviral activities of test compounds were evaluated against SARS-CoV-2 (USA-WA1/2020) using made to order human airway epithelial (HAE) cells.
Cell Culture: HAE cells were grown on 6 mm mesh disks and arrived in kits with either 12- or 24-well transwell inserts. During transportation the tissues were stabilized on a sheet of agarose, which was removed upon receipt. One insert was estimated to consist of approximately 1.2×10^6 cells. Kits of cell inserts (EpiAirway™ AIR-100 or AIR-112) originated from a single donor, #9831, a healthy, non-smoking person. The cells form polarized monolayers, the apical side of which is exposed to air and creates a mucin layer. Upon arrival, the cell transwell inserts were immediately transferred to individual wells of a 6-well plate according to the manufacturer's instructions, and 1 mL of MatTek's proprietary culture medium (AIR-100-MM) was added to the basolateral side, whereas the apical side was exposed to a humidified 5% CO2 environment. Cells were cultured at 37° C. in a humidified atmosphere containing 5% CO2 for one day before the start of the experiment. After the 24-h equilibration period, the mucin layer, secreted from the apical side of the cells, was removed by washing with 400 μL pre-warmed 30 mM HEPES buffered saline solution 3×. Culture medium was replenished following the wash steps.
Viruses: Virus was diluted in AIR-100-MM medium before infection to yield a MOI when added to cultures of approximately 0.0015 CCID50 per cell.
Select compounds of the present invention were tested in a SARS-CoV-2 assay. […]

Data set [2] concerns human airway epithelial (HAE) cells.
Data set [3] in a line: in vitro. As to conditions: human.
Data set [4] concerns RSV. The following applies: RSV-infected HAE cells; read-out: in vitro EC90; cited from earlier work.
For data set [5], the system named is human nasal epithelial cells. The following applies: 10 μM.
For data set [6], the system named is human bronchial epithelial cells. As to conditions: 10 μM.
Data set [7] deals with HCV. As to conditions: HCV-infected subjects, up to 12 weeks; cited from earlier work.
The nature of data set [8]: Plasma PK in non-human primates after oral Compound 2A. As to conditions: monkey plasma, oral Compound 2A 60 mg/kg then 30 mg/kg every 12 h, steady state.
Where [9] appears, read: Severe acute respiratory syndrome coronavirus 2, HAE, SARS-CoV-2, Table 11B, read-out: VYR Assay EC90.
Where [10] appears, read: Severe acute respiratory syndrome coronavirus 2, HAE, SARS-CoV-2 in HAE (dNHBE) cells, Table 11, read-out: VYR Assay EC90.

The EC90 is the concentration at which the effect reaches the 90% level. `Cc1ncc2ncn([C@@H]3O[C@H](COP(=O)(N[C@@H](C)C(=O)OC(C)C)Oc4ccccc4)[C@@H](O)[C@]3(F)C(F)(F)F)c2n1` (stereo partly drawn) [Compound 13]: the 90% effect concentration (EC90) in data set [1] (setting [9]) came out at 3.2 µM.

Consider `CNc1nc(N)nc2c1ncn2[C@@H]1O[C@H](CO[P@@](=O)(N[C@@H](C)C(=O)OC(C)C)Oc2ccccc2)[C@@H](O)[C@]1(F)CO` [Compound 9, Isopropyl ((S)-(((2R,3R,4R,5R)-5-(2-amino-6-(methylamino)-9H-purin-9-yl)-4-fluoro-3-hydroxy-4-(hydroxymethyl)tetrahydrofuran-2-yl)methoxy)(phenoxy)phosphoryl)-L-alaninate], for which the EC90 in data set [1] (setting [10]) is 8.5 µM. Besides, in data set [2], the “VYR Assay CC50” value is listed as “no visual tox”.

On to `CC(C)OC(=O)[C@H](C)N[P@](=O)(OC[C@H]1O[C@@H](n2ccc(=O)[nH]c2=O)[C@](C)(F)[C@@H]1O)Oc1ccccc1` [Sofosbuvir, reference compound], for which the EC90 in data set [1] (setting [10]) was over 19 µM. Besides, the “VYR Assay CC50” value in data set [2] was “no visual tox”.

For `CC(C)OC(=O)[C@H](C)N[P@](=O)(OC[C@H]1O[C@@](C#N)(n2ncc3c(N)ncnc32)[C@H](F)[C@@H]1O)Oc1ccccc1` [Compound 15], the EC90 in data set [1] (setting [9]) was 1.1 µM.

Turning to `C#C[C@@]1(F)[C@H](O)[C@@H](CO[P@@](=O)(N[C@@H](C)C(=O)OC(C)C)Oc2ccccc2)O[C@H]1n1cnc2c(NC)nc(N)nc21` [Compound 7, Isopropyl ((S)-(((2R,3R,4R,5R)-5-(2-amino-6-(methylamino)-9H-purin-9-yl)-4-ethynyl-4-fluoro-3-hydroxytetrahydrofuran-2-yl)methoxy)(phenoxy)phosphoryl)-L-alaninate], the EC90 in data set [1] (setting [10]) amounted to 3.2 µM. In addition, the “VYR Assay CC50” value in data set [2] is listed as “no visual tox”.

As for `O=c1nc(NO)ccn1[C@@H]1O[C@H](CO)[C@@H](O)[C@H]1O` [N^4-hydroxycytidine, reference compound], the “Selectivity Index (CC50/EC90)” value in data set [1] (SARS-CoV-2 in HAE, Table 5) is over 5.1. Also, the EC90 in data set [1] (SARS-CoV-2 in HAE, footnotes f, g, h of Table 5, read-out: EC90, single replicates) was found to be 3.1 µM. In data set [1] (SARS-CoV-2 in HAE, same experiment), the “potency relative to Compound 1A (times less)” value came to 8 times.

Molecule `CCN(CC)CCCC(C)Nc1ccnc2cc(Cl)ccc12` (stereo not drawn) [chloroquine] showed a CC50 in data set [3] of 21 µM.

In the case of `CC(C)OC(=O)[C@H](C)NP(=O)(OC[C@H]1O[C@@H](Oc2ncc(Br)nc2C(N)=O)[C@@](F)(C(F)(F)F)[C@@H]1O)Oc1ccccc1` (stereo partly drawn) [Compound 14], the EC90 in data set [1] (setting [9]) turned out to be 0.57 µM.

Take `Nc1ccn([C@@H]2O[C@@](CO)(CCl)[C@@H](O)[C@H]2F)c(=O)n1` [ALS-8112, reference compound]: the EC90 in data set [4] is 1.3 to 2.7 µM. The “ratio of triphosphate from Compound 1A vs. comparator” value in data set [5] (8 h) is reported as 1; in data set [5] (15 h), 3; in data set [6] (8 h) it was 2; in data set [6] (15 h), 5.

Regarding `CNc1nc(N)nc2c1ncn2[C@@H]1O[C@H](CO[P@@](=O)(N[C@@H](C)C(=O)OC(C)C)Oc2ccccc2)[C@@H](O)[C@]1(F)C(F)(F)F` [Compound 11A], the 90% effect concentration (EC90) in data set [1] (Severe acute respiratory syndrome coronavirus 2, HAE, read-out: VYR Assay EC90, SARS-CoV-2 in HAE (dNHBE) cells, Table 11) turned out to be 3.7 µM. Besides, the “VYR Assay CC50” value in data set [2] is recorded as “no visual tox”.

As for `CNc1nc(N)nc2c1ncn2[C@@H]1O[C@H](CO[P@@](=O)(N[C@@H](C)C(=O)OC(C)C)Oc2ccccc2)[C@@H](O)[C@]1(F)CF` [Compound 6, Isopropyl ((S)-(((2R,3R,4R,5R)-5-(2-amino-6-(methylamino)-9H-purin-9-yl)-4-fluoro-4-(fluoromethyl)-3-hydroxytetrahydrofuran-2-yl)methoxy)(phenoxy)phosphoryl)-L-alaninate], the EC90 in data set [1] (setting [10]) amounted to 1.8 µM. For the same molecule, in data set [2], the “VYR Assay CC50” value is recorded as “no visual tox”.

On to `Cc1nc2nccnc2n1[C@@H]1O[C@H](COP(=O)(N[C@@H](C)C(=O)OC(C)C)Oc2ccccc2)[C@@H](O)[C@]1(F)C(F)(F)F` (stereo partly drawn) [Compound 12], for which the EC90 in data set [1] (setting [9]) was found to be 1.5 µM.

In the case of `CNc1nc(N)nc2c1ncn2[C@@H]1O[C@H](CO[P@@](=O)(N[C@@H](C)C(=O)OC(C)C)Oc2ccccc2)[C@@H](O)[C@@]1(C)F` [Compound 2A], the safety and tolerability entry in data set [7] is “safe and well-tolerated”.

`CCN(CCO)CCCC(C)Nc1ccnc2cc(Cl)ccc12` (stereo not drawn) [hydroxychloroquine]: in data set [3], the CC50 was 26 µM.

Take `CC(C)OC(=O)[C@H](C)NP(=O)(OC[C@H]1O[C@@H](n2cnc3c(NC4CC4)nc(N)nc32)[C@@](F)(CO)[C@@H]1O)Oc1ccccc1` (stereo partly drawn) [Compound 10, Isopropyl ((((2R,3R,4R,5R)-5-(2-amino-6-(cyclopropylamino)-9H-purin-9-yl)-4-fluoro-3-hydroxy-4-(hydroxymethyl)tetrahydrofuran-2-yl)methoxy)(phenoxy)phosphoryl)-L-alaninate]: the EC90 in data set [1] (setting [10]) was determined as 5.3 µM. Further, the “VYR Assay CC50” value in data set [2] is recorded as “no visual tox”.

Turning to `[2H]C([2H])([2H])[C@@]1(F)[C@H](O)[C@@H](CO[P@@](=O)(N[C@@H](C)C(=O)OC(C)C)Oc2ccccc2)O[C@H]1n1cnc2c(NC)nc(N)nc21` [Compound 5, Isopropyl ((S)-(((2R,3R,4R,5R)-5-(2-amino-6-(methylamino)-9H-purin-9-yl)-4-fluoro-3-hydroxy-4-methyltetrahydrofuran-2-yl)methoxy)(phenoxy)phosphoryl)-L-alaninate], the concentration for an effect of 90% (EC90) in data set [1] (setting [10]) was 0.31 µM. For the same molecule, in data set [2], the “VYR Assay CC50” value is recorded as “no visual tox”.

On to `C=C[C@@]1(F)[C@H](O)[C@@H](CO[P@@](=O)(N[C@@H](C)C(=O)OC(C)C)Oc2ccccc2)O[C@H]1n1cnc2c(NC)nc(N)nc21` [Compound 8, Isopropyl ((S)-(((2R,3R,4R,5R)-5-(2-amino-6-(methylamino)-9H-purin-9-yl)-4-fluoro-3-hydroxy-4-vinyltetrahydrofuran-2-yl)methoxy)(phenoxy)phosphoryl)-L-alaninate], for which the EC90 in data set [1] (setting [10]) came out at 6.4 µM. For the same molecule, the “VYR Assay CC50” value in data set [2] is listed as “no visual tox”.

One may read the Cmax as the highest concentration seen after dosing. For orientation: Tmax means the time at which the peak concentration occurs. Consider `C[C@@]1(F)[C@H](O)[C@@H](CO)O[C@H]1n1cnc2c(=O)[nH]c(N)nc21` [Compound 1-7, 2-amino-9-((2R,3R,4R,5R)-3-fluoro-4-hydroxy-5-(hydroxymethyl)-3-methyltetrahydrofuran-2-yl)-1,9-dihydro-6H-purin-6-one], for which, in data set [8], the Cmax came to 160 nM and the Tmax was 2 h.
